Results as given in patent US6451809B2 (dated 2002).

Row | Compound | melting point
1 | Cc1ccc(CNC(=O)C2=C3N(CCC2=O)c2ccccc2N3CCN(C)C)cc1 | 120 to 122 °C
2 | CCN(CC)CCOc1ccncc1NC(=O)C1=C(O)CCn2c1nc1ccccc12.Cl | 175 to 178 °C
3 | Cl.O=C(Nc1cnccc1OCCOCCN1CCCC1)C1=C(O)CCn2c1nc1ccccc12 | 55 to 65 °C
4 | Cl.O=C(Nc1cnccc1OCCCN1CCCC1)C1=C(O)CCn2c1nc1ccccc12 | 60 to 68 °C
5 | CN(C)CCN1C2=C(C(=O)NCc3ccccc3Cl)C(=O)CCN2c2ccccc21 | 138 to 140 °C

Next, values leading:

Row | melting point | Compound
6 | 60 to 65 °C | CCNCCOc1ccc(NC(=O)C2=C(O)CCn3c2nc2ccccc23)cc1.Cl
7 | 130 to 142 °C | Cl.O=C(Nc1ccc(OCCN2CCCC2)cc1)C1=C(O)CCn2c1nc1ccccc12
8 | 170 to 174 °C | Cl.O=C(Nc1cnccc1OCCN1CCCC1)C1=C(O)CCn2c1nc1ccccc12
9 | 225 to 230 °C | Cl.O=C(Nc1cnccc1OCCN1CCCCC1)C1=C(O)CCn2c1nc1ccccc12
